Source: patent publication US9873680B2 (Gilead Sciences, Inc., priority 2014, dated 2018)
Read-outs that look alike come from different tables or passages of the source.

Legend:
HIV-IIIb = assay: Test A: Antiviral Assay in MT4 Cells; assay type: cell-based, HIV-1; conditions: read-out: % inhibition at 0.2 μM (percent inhibition of virus-induced cell killing)
Outline: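 Readout was CellTiter-Glo luminescence after 10 min room-temperature lysis, taken 5 days after plating at 37 °C. The 2000 MT-4 cells per well, mixed 1 h beforehand with HIV-IIIb (m.o.i. 0.003), went straight onto the diluted compound.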

[1] = Test B: Cytotoxicity Assay; assay type: cell-based; conditions: human, uninfected MT-4 cells, CellTiter-Glo
Procedure: Test B: Cytotoxicity Assay Compound cytotoxicity and the corresponding CC50 values was determined using the same protocol as described in the antiviral assay (Test A) except that uninfected cells were used.

[2] = Human immunodeficiency virus 1, MT4, 120 h, 0.2 μM drug concentration, MT-4 cells infected with HIV-IIIb, 5 days, values normalized to 100%, average over time
[3] = Human immunodeficiency virus 1, IIIB, MT4, 120 h

| Structure (SMILES) | inhibition at 0.2 µM (HIV-IIIb; [2]) | CC50 at 5 days [1] | inhibition at 0.2 µM (HIV-IIIb; [3]) |
| --- | --- | --- | --- |
| Cn1cnc(C(O)C#Cc2ccc(-c3ccc(Cl)c4c(NS(C)(=O)=O)nn(C)c34)c([C@H](Cc3cc(F)cc(F)c3)NC(=O)Cn3nc(C(F)(F)F)c4c3C(F)(F)[C@@H]3C[C@H]43)n2)c1 (stereo partly drawn) [Compound 56B, N-((1S)-1-(3-(4-chloro-1-methyl-3-(methylsulfonamido)-1H-indazol-7-yl)-6-(3-hydroxy-3-(1-methyl-1H-imidazol-4-yl)prop-1-yn-1-yl)pyridin-2-yl)-2-(3,5-difluorophenyl)ethyl)-2-((3bS,4aR)-5,5-difluoro-3-(trifluoromethyl)-3b,4,4a,5-tetrahydro-1H-cyclopropa[3,4]cyclopenta[1,2-c]pyrazol-1-yl)acetamide] | 84% | 9.02 µM |  |
| Cn1nc(O)c2c(Cl)ccc(-c3ccc(C#CC4(O)CCOCC4)nc3[C@H](Cc3cc(F)cc(F)c3)NC(=O)Cn3nc(C(F)(F)F)c4c3CCCC4)c21 [Compound 57, (S)—N-(1-(3-(4-chloro-3-hydroxy-1-methyl-1H-indazol-7-yl)-6-((4-hydroxytetrahydro-2H-pyran-4-yl)ethynyl)pyridin-2-yl)-2-(3,5-difluorophenyl)ethyl)-2-(3-(trifluoromethyl)-4,5,6,7-tetrahydro-1H-indazol-1-yl)acetamide] |  | 21 µM | 100% |
| Cn1nc(NS(C)(=O)=O)c2c(Cl)ccc(-c3ccc(C#CC4(O)CCNC4)nc3[C@H](Cc3cc(F)cc(F)c3)NC(=O)Cn3nc(C(F)(F)F)c4c3C(F)(F)[C@@H]3C[C@H]43)c21 (stereo partly drawn) [Compound 58, N-((1S)-1-(3-(4-chloro-1-methyl-3-(methylsulfonamido)-1H-indazol-7-yl)-6-((3-hydroxypyrrolidin-3-yl)ethynyl)pyridin-2-yl)-2-(3,5-difluorophenyl)ethyl)-2-((3bS,4aR)-5,5-difluoro-3-(trifluoromethyl)-3b,4,4a,5-tetrahydro-1H-cyclopropa[3,4]cyclopenta[1,2-c]pyrazol-1-yl)acetamide] | 91% | 5.19 µM |  |
| Cn1nc(NS(C)(=O)=O)c2c(Cl)ccc(-c3ccc(C#CC(C)(O)C4CC4)nc3[C@H](Cc3cc(F)cc(F)c3)NC(=O)Cn3nc(C(F)(F)F)c4c3C(F)(F)[C@@H]3C[C@H]43)c21 (stereo partly drawn) [Compound 59, N-((1S)-1-(3-(4-chloro-1-methyl-3-(methylsulfonamido)-1H-indazol-7-yl)-6-(3-cyclopropyl-3-hydroxybut-1-yn-1-yl)pyridin-2-yl)-2-(3,5-difluorophenyl)ethyl)-2-((3bS,4aR)-5,5-difluoro-3-(trifluoromethyl)-3b,4,4a,5-tetrahydro-1H-cyclopropa[3,4]cyclopenta[1,2-c]pyrazol-1-yl)acetamide] | 95% | 10.2 µM |  |
| Cn1nc(NS(C)(=O)=O)c2c(Cl)ccc(-c3ccc(C#CC(C)(C)N4CCOC4=O)nc3[C@H](Cc3cc(F)cc(F)c3)NC(=O)Cn3nc(C(F)F)c4c3C(F)(F)[C@@H]3C[C@H]43)c21 [Compound 60D, N—((S)-1-(3-(4-chloro-1-methyl-3-(methylsulfonamido)-1H-indazol-7-yl)-6-(3-methyl-3-(2-oxooxazolidin-3-yl)but-1-yn-1-yl)pyridin-2-yl)-2-(3,5-difluorophenyl)ethyl)-2-((3bS,4aR)-3-(difluoromethyl)-5,5-difluoro-3b,4,4a,5-tetrahydro-1H-cyclopropa[3,4]cyclopenta[1,2-c]pyrazol-1-yl)acetamide] |  | > 27.8 µM | 94% |
| Cn1nc(NS(C)(=O)=O)c2c(Cl)ccc(-c3ccc(C#CC4(O)CCC4)nc3[C@H](Cc3cc(F)cc(F)c3)NC(=O)Cn3nc(C(F)(F)F)c4c3C(F)(F)[C@@H]3C[C@H]43)c21 [Compound 61C, N—((S)-1-(3-(4-chloro-1-methyl-3-(methylsulfonamido)-1H-indazol-7-yl)-6-((1-hydroxycyclobutyl)ethynyl)pyridin-2-yl)-2-(3,5-difluorophenyl)ethyl)-2-((3bS,4aR)-5,5-difluoro-3-(trifluoromethyl)-3b,4,4a,5-tetrahydro-1H-cyclopropa[3,4]cyclopenta[1,2-c]pyrazol-1-yl)acetamide] | 93% | 7.89 µM |  |
| Cn1nc(NS(C)(=O)=O)c2c(Cl)ccc(-c3ccc(C#CC4(O)CC4)nc3[C@H](Cc3cc(F)cc(F)c3)NC(=O)Cn3nc(C(F)F)c4c3C(F)(F)[C@@H]3C[C@H]43)c21 [Compound 62B, N—((S)-1-(3-(4-chloro-1-methyl-3-(methylsulfonamido)-1H-indazol-7-yl)-6-((1-hydroxycyclopropyl)ethynyl)pyridin-2-yl)-2-(3,5-difluorophenyl)ethyl)-2-((3bS,4aR)-3-(difluoromethyl)-5,5-difluoro-3b,4,4a,5-tetrahydro-1H-cyclopropa[3,4]cyclopenta[1,2-c]pyrazol-1-yl)acetamide] | 93% | 14.9 µM |  |
| Cn1nc(NS(C)(=O)=O)c2c(Cl)ccc(-c3ccc(C#CC(C)(C)N4CCOC4=O)nc3[C@H](Cc3cc(F)cc(F)c3)NC(=O)Cn3nc(C(F)(F)F)c4c3C(F)(F)[C@@H]3C[C@H]43)c21 [Compound 63, N—((S)-1-(3-(4-chloro-1-methyl-3-(methylsulfonamido)-1H-indazol-7-yl)-6-(3-methyl-3-(2-oxooxazolidin-3-yl)but-1-yn-1-yl)pyridin-2-yl)-2-(3,5-difluorophenyl)ethyl)-2-((3bS,4aR)-5,5-difluoro-3-(trifluoromethyl)-3b,4,4a,5-tetrahydro-1H-cyclopropa[3,4]cyclopenta[1,2-c]pyrazol-1-yl)acetamide] | 90% | 20.7 µM |  |
| Cn1nc(NS(C)(=O)=O)c2c(Cl)ccc(-c3ccc(C#CC4(O)CC4)nc3[C@H](Cc3cc(F)cc(F)c3)NC(=O)Cn3nc(C(F)(F)F)c4c3C(F)(F)[C@@H]3C[C@H]43)c21 [Compound 64, N—((S)-1-(3-(4-chloro-1-methyl-3-(methylsulfonamido)-1H-indazol-7-yl)-6-((1-hydroxycyclopropyl)ethynyl)pyridin-2-yl)-2-(3,5-difluorophenyl)ethyl)-2-((3bS,4aR)-5,5-difluoro-3-(trifluoromethyl)-3b,4,4a,5-tetrahydro-1H-cyclopropa[3,4]cyclopenta[1,2-c]pyrazol-1-yl)acetamide] | 98% | 16.1 µM |  |
| Cn1nc(NS(C)(=O)=O)c2c(Cl)ccc(-c3ccc(C#CC(O)C4CNC4)nc3[C@H](Cc3cc(F)cc(F)c3)NC(=O)Cn3nc(C(F)(F)F)c4c3C(F)(F)[C@@H]3C[C@H]43)c21 (stereo partly drawn) [Compound 65, N-((1S)-1-(6-(3-(azetidin-3-yl)-3-hydroxyprop-1-yn-1-yl)-3-(4-chloro-1-methyl-3-(methylsulfonamido)-1H-indazol-7-yl)pyridin-2-yl)-2-(3,5-difluorophenyl)ethyl)-2-((3bS,4aR)-5,5-difluoro-3-(trifluoromethyl)-3b,4,4a,5-tetrahydro-1H-cyclopropa[3,4]cyclopenta[1,2-c]pyrazol-1-yl)acetamide] | 37% | 19.3 µM |  |
| Cn1nc(NS(C)(=O)=O)c2c(Cl)ccc(-c3ccc(C#CC4CCCN4C(=O)CO)nc3[C@H](Cc3cc(F)cc(F)c3)NC(=O)Cn3nc(C(F)(F)F)c4c3C(F)(F)[C@@H]3C[C@H]43)c21 (stereo partly drawn) [Compound 66, N-((1S)-1-(3-(4-chloro-1-methyl-3-(methylsulfonamido)-1H-indazol-7-yl)-6-((1-(2-hydroxyacetyl)pyrrolidin-2-yl)ethynyl)pyridin-2-yl)-2-(3,5-difluorophenyl)ethyl)-2-((3bS,4aR)-5,5-difluoro-3-(trifluoromethyl)-3b,4,4a,5-tetrahydro-1H-cyclopropa[3,4]cyclopenta[1,2-c]pyrazol-1-yl)acetamide] | 92% | 11.6 µM |  |
| Cn1cnc(C#Cc2ccc(-c3ccc(Cl)c4c(NS(C)(=O)=O)nn(C)c34)c([C@H](Cc3cc(F)cc(F)c3)NC(=O)Cn3nc(C(F)(F)F)c4c3C(F)(F)[C@@H]3C[C@H]43)n2)c1 [Compound 67, N—((S)-1-(3-(4-chloro-1-methyl-3-(methylsulfonamido)-1H-indazol-7-yl)-6-((1-methyl-1H-imidazol-4-yl)ethynyl)pyridin-2-yl)-2-(3,5-difluorophenyl)ethyl)-2-((3bS,4aR)-5,5-difluoro-3-(trifluoromethyl)-3b,4,4a,5-tetrahydro-1H-cyclopropa[3,4]cyclopenta[1,2-c]pyrazol-1-yl)acetamide] | 87% | > 53.2 µM |  |
| Cn1nc(NS(C)(=O)=O)c2c(Cl)ccc(-c3ccc(C#CC4CNCCO4)nc3[C@H](Cc3cc(F)cc(F)c3)NC(=O)Cn3nc(C(F)F)c4c3C(F)(F)[C@@H]3C[C@H]43)c21 (stereo partly drawn) [Compound 68, N-((1S)-1-(3-(4-chloro-1-methyl-3-(methylsulfonamido)-1H-indazol-7-yl)-6-(morpholin-2-ylethynyl)pyridin-2-yl)-2-(3,5-difluorophenyl)ethyl)-2-((3bS,4aR)-3-(difluoromethyl)-5,5-difluoro-3b,4,4a,5-tetrahydro-1H-cyclopropa[3,4]cyclopenta[1,2-c]pyrazol-1-yl)acetamide] | 100% | 7.51 µM |  |
| Cn1nc(NS(C)(=O)=O)c2c(Cl)ccc(-c3ccc(C#CC4(O)CCC4)nc3[C@H](Cc3cc(F)cc(F)c3)NC(=O)Cn3nc(C(F)F)c4c3C(F)(F)[C@@H]3C[C@H]43)c21 [Compound 69, N—((S)-1-(3-(4-chloro-1-methyl-3-(methylsulfonamido)-1H-indazol-7-yl)-6-((1-hydroxycyclobutyl)ethynyl)pyridin-2-yl)-2-(3,5-difluorophenyl)ethyl)-2-((3bS,4aR)-3-(difluoromethyl)-5,5-difluoro-3b,4,4a,5-tetrahydro-1H-cyclopropa[3,4]cyclopenta[1,2-c]pyrazol-1-yl)acetamide] | 96% | 13.6 µM |  |
